“Also recorded” adds a separate entry of the source.
Assays:
COL17A1 = COL17A1 expression in human epidermal keratinocytes by high content imaging (HCS); format: cell-based
Protocol: The present inventors further searched for substances that induce or maintain the expression of COL17A1. Human epidermal keratinocytes were seeded in 384-well plates, cultured for 48 hours after addition of reagents, immunostained with an anti-COL17A1 antibody and a fluorescently labeled secondary antibody, and then the fluorescence intensity per cell was detected using a high content imaging system (HCS: High Content Screening). In addition to cell counting with DAPI, the expression level of COL17A1 was quantified.

UVB-irradiated back skin = assay: Barrier function after UVB irradiation (Example 12); format: in vivo, Hairless mice HOS: HR-1
Protocol: Hairless mice HOS: HR-1 females (7 weeks old) were acclimatized to the experimental environment and then grouped into the 6 groups below, so that the body weight values were nearly uniform. • No ultraviolet irradiation group (n=2) • Ultraviolet (UVB) irradiation+solvent application group (n=4). • Ultraviolet (UVB) irradiation+200 nM apocynin application group (n=4). • Ultraviolet (UVB) irradiation+200 μM apocynin application group (n=4). • Ultraviolet (UVB) irradiation+2 μM Y-27632 application group (n=4). • Ultraviolet (UVB) irradiation+20 μM Y-27632 application group (n=4) In the above solution application group, aqueous solutions of each preparation were applied to hairless mice on their back once a day for five days, starting from the day before ultraviolet irradiation. UVB irradiation was carried out using a Yayoi ultraviolet irradiation system (Y-UV-Lab-K-D5 lamp type) at an intensity of 150 mJ/cm^2 once a day. The stratum corneum water content and TEWL of the irradiated area were measured for each group of mice on the fourth day after the start of ultraviolet irradiation. The measurements were performed using Corneometer CM825 and Tewameter TN300 (Courage+Khazaka, Integral Corporation, Germany) at specific sites on the back of the mice.

[1] = tested on: human epidermal keratinocytes; assay: Colony formation assay using human epidermal keratinocytes; format: cell-based
From the text: To test whether COL17A1-mediated SCD maintains clonal proliferation of epidermal stem cell clones, the present inventors used a colony formation assay, which is an in vitro assay said to be the gold standard for assessing the self-renewal ability of epidermal stem cells, including cells in the tail epidermis.

Structure (SMILES): COc1cc(C(C)=O)ccc1O [Apocynin]
- COL17A1 expression level (control ratio) (COL17A1; Table 1, human epidermal keratinocytes, 48 hours after addition of reagents, fluorescence intensity per cell): ⊚ (one double circle (⊚) represents a 1.2-fold or greater increase)
- COL17A1 expression / amount of COL17A1 in cultured keratinocytes compared to the control (COL17A1; in vitro, HCS (FIG. 15)): significantly increased; also recorded: maintain or induce the COL17A1 expression; also recorded: induce the COL17A1 expression
- TEWL after ultraviolet irradiation (UVB-irradiated back skin; 200 µM administration group, UVB, fourth day (FIG. 21)): significantly lower
- water content of the stratum corneum after ultraviolet irradiation (UVB-irradiated back skin; 200 μM applied, UVB 150 mJ/cm^2, fourth day (FIG. 21)): significantly higher
- Colony area (control ratio) ([1]; Table 1): ⊚ (one double circle (⊚) indicates maintenance of 1.0-1.2-fold)
- Colony number (control ratio) ([1]; Table 1): ⊚ (one double circle (⊚) indicates maintenance of 1.0-1.2-fold)
- area of colonies per well ([1]; compared to the control (FIG. 16)): significantly increased
- number of colonies ([1]; compared to the control, n=3 wells (FIG. 13, FIG. 16)): significantly increased
- average size of the top five colonies ([1]; compared to the control, n=3 wells (FIG. 14)): significantly increased
- colony size ([1]; human epidermal keratinocytes): significantly increased
- number of colonies with a diameter greater than 2 mm ([1]; n=3 wells (FIG. 13 right)): significantly increased

From patent publication US20260256870A1, “SKIN COMPOSITION” (Eaderm Co., Ltd., priority 2019, published 2026)
